# Measurements from US6737383B1, “Herbicidal oxadiazolidines” (priority 1999, dated 2004).
# Key:
# rape = assay: Test B pre/postemergence rape; type: in vivo, Brassica napus
# In short: (§1)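 Herbicidal effect was estimated by eye on a ten-point control scale after plants spent twelve to sixteen days in a greenhouse following soil or foliar treatment. Foliar sprays targeted plants at one to four leaves; all doses were formulated in a non-phytotoxic solvent with surfactant.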
# wild oat = assay: Test B pre/postemergence wild oat; type: in vivo, Avena fatua
# In short: as §1
# bamyardgrass = assay: Test B flood test barnyardgrass; type: in vivo, Echinochloa crus-galli
# In short: (§2)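 Plants were grown to the 2-leaf stage before treatment with test chemical, then held in a greenhouse for twelve to sixteen days. Injury was visually rated against untreated controls on a 0–10 scale, where 0 is no effect and 10 is complete control.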
# pigweed = assay: Test B pre/postemergence pigweed; type: in vivo, Amaranthus retroflexus
# In short: as §1
# soybean = assay: Test B pre/postemergence soybean; type: in vivo, Glycine max
# In short: as §1
# duck salad = assay: Test B flood test duck salad; type: in vivo, Heteranthera limosa
# In short: as §2
# cocklebur = assay: Test B pre/postemergence cocklebur; type: in vivo, Xanthium strumarium
# In short: as §1
# crabgrass = assay: Test B pre/postemergence crabgrass; type: in vivo, Digitaria sanguinalis
# In short: as §1
# morningglory = assay: Test B pre/postemergence morningglory; type: in vivo, Ipomoea hederacea
# In short: as §1
# velvetleaf = assay: Test B pre/postemergence velvetleaf; type: in vivo, Abutilon theophrasti
# In short: as §1
# rice = assay: Test B flood test rice; type: in vivo, Oryza sativa
# In short: as §2
# giant foxtail = assay: Test B pre/postemergence giant foxtail; type: in vivo, Setaria faberii
# In short: as §1
# purple nutsedge = assay: Test B pre/postemergence purple nutsedge; type: in vivo, Cyperus rotundus
# In short: as §1
# corn = assay: Test B pre/postemergence corn; type: in vivo, Zea mays
# In short: as §1
# wheat = assay: Test B pre/postemergence wheat; type: in vivo, Triticum aestivum
# In short: as §1
# sugar beet = assay: Test B pre/postemergence sugar beet; type: in vivo, Beta vulgaris
# In short: as §1
# [1] = Postemergence, Rate 125 g/ha, scale of 0 to 10 where 0 is no effect and 10 is complete control
# [2] = Preemergence, Rate 62 g/ha, scale 0 to 10 (0 no effect, 10 complete control)
# [3] = Preemergence, Rate 125 g/ha, 0 is no effect, 10 is complete control
# [4] = Preemergence, Rate 250 g/ha, scale 0 to 10, 0 is no effect, 10 is complete control
# [5] = Preemergence, Rate 500 g/ha, scale 0 to 10 (0 no effect, 10 complete control)
# [6] = Rate 62 g/ha, Postemergence, scale of 0 to 10 where 0 is no effect and 10 is complete control
# [7] = Rate 250 g/ha, Postemergence, scale 0 to 10, 0 is no effect, 10 is complete control
# [8] = Rate 500 g/ha, Postemergence, scale 0 to 10
# [9] = Postemergence (flood test species), Rate 125 g/ha, scale of 0 to 10 where 0 is no effect and 10 is complete control
# [10] = Rate 31 g/ha, Postemergence section (flood test species), scale 0 to 10
# [11] = Rate 62 g/ha, Postemergence section, flood test species, scale of 0 to 10 where 0 is no effect and 10 is complete control
# [12] = Rate 250 g/ha, Postemergence (flood test), scale 0 to 10, 0 is no effect, 10 is complete control
# [13] = Rate 250 g/ha, Pre-emergence, flood-test species, scale 0 to 10, 0 is no effect, 10 is complete control
# [14] = Rate 500 g/ha, headed Pre-emergence (flood test species), scale 0 to 10 (0 no effect, 10 complete control)
# [15] = Rate 1000 g/ha, Pre-emergence (as headed), scale 0 to 10
# [16] = Rate 2000 g/ha, Pre-emergence (as headed), scale 0 to 10
smiles,measurement,setting,value
C=C(C)Cn1c(=O)on(C(=O)N(c2ccc(F)cc2)C(C)C)c1=O [Compound 139],Rape plant response rating,rape; [1],2
same,Rape plant response rating,rape; [2],0
same,Rape plant response rating (0 to 10 scale),rape; [3],0
same,Rape plant response rating,rape; [4],4
same,Rape plant response rating,rape; [5],9
same,Rape plant response rating,rape; [6],0
same,"Plant response rating, Rape",rape; [7],2
same,Rape plant response rating,rape; [8],4
same,Wild oats plant response rating,wild oat; [1],2
same,Wild oats plant response rating,wild oat; [2],3
same,Wild oats plant response rating (0 to 10 scale),wild oat; [3],7
same,Wild oats plant response rating,wild oat; [4],8
same,Wild oats plant response rating,wild oat; [5],9
same,Wild oats plant response rating,wild oat; [6],2
same,"Plant response rating, Wild oats",wild oat; [7],4
same,Wild oats plant response rating,wild oat; [8],4
same,Barnyardgrass plant response rating,bamyardgrass; [9],0
same,Barnyardgrass plant response rating,bamyardgrass; [10],0
same,Barnyardgrass plant response rating,bamyardgrass; [11],0
same,"Plant response rating, Barnyardgrass",bamyardgrass; [12],0
same,Barnyardgrass plant response rating,bamyardgrass; [13],0
same,"Plant response rating, Barnyardgrass",bamyardgrass; [14],0
same,Barnyardgrass plant response rating,bamyardgrass; [15],0
same,Barnyardgrass plant response rating,"bamyardgrass; Rate 2000 g/ha, Pre-emergence (as headed), scale 0 to 10, 0 no effect, 10 complete control",6
same,Redroot pigweed plant response rating,pigweed; [1],3
same,Redroot pigweed plant response rating,pigweed; [2],6
same,Redroot pigweed plant response rating (0 to 10 scale),pigweed; [3],8
same,Redroot pigweed plant response rating,pigweed; [4],10
same,Redroot pigweed plant response rating,pigweed; [5],10
same,Redroot pigweed plant response rating,pigweed; [6],3
same,"Plant response rating, Redroot pigweed",pigweed; [7],4
same,Redroot pigweed plant response rating,pigweed; [8],4
same,Soybean plant response rating,soybean; [1],2
same,Soybean plant response rating,soybean; [2],0
same,Soybean plant response rating (0 to 10 scale),soybean; [3],0
same,Soybean plant response rating,soybean; [4],0
same,Soybean plant response rating,soybean; [5],2
same,Soybean plant response rating,soybean; [6],1
same,"Plant response rating, Soybean",soybean; [7],4
same,Soybean plant response rating,soybean; [8],5
same,Ducksalad plant response rating,duck salad; [9],0
same,Ducksalad plant response rating,duck salad; [10],0
same,Ducksalad plant response rating,duck salad; [11],0
same,"Plant response rating, Ducksalad",duck salad; [12],0
same,Ducksalad plant response rating,duck salad; [13],0
same,"Plant response rating, Ducksalad",duck salad; [14],0
same,Ducksalad plant response rating,duck salad; [15],0
same,Ducksalad plant response rating,duck salad; [16],2
same,Cocklebur plant response rating,cocklebur; [1],0
same,Cocklebur plant response rating,cocklebur; [2],0
same,Cocklebur plant response rating (0 to 10 scale),cocklebur; [3],0
same,Cocklebur plant response rating,cocklebur; [4],0
same,Cocklebur plant response rating,cocklebur; [5],0
same,Cocklebur plant response rating,cocklebur; [6],0
same,"Plant response rating, Cocklebur",cocklebur; [7],2
same,Cocklebur plant response rating,cocklebur; [8],2
same,Crabgrass plant response rating,crabgrass; [1],8
same,Crabgrass plant response rating,crabgrass; [2],7
same,Crabgrass plant response rating (0 to 10 scale),crabgrass; [3],10
same,Crabgrass plant response rating,crabgrass; [4],10
same,Crabgrass plant response rating,crabgrass; [5],10
same,Crabgrass plant response rating,crabgrass; [6],8
same,"Plant response rating, Crabgrass",crabgrass; [7],9
same,Crabgrass plant response rating,crabgrass; [8],9
same,Morningglory plant response rating,morningglory; [1],5
same,Morningglory plant response rating,morningglory; [2],0
same,Morningglory plant response rating (0 to 10 scale),morningglory; [3],0
same,Morningglory plant response rating,morningglory; [4],0
same,Morningglory plant response rating,morningglory; [5],0
same,Morningglory plant response rating,morningglory; [6],3
same,"Plant response rating, Morningglory",morningglory; [7],6
same,Morningglory plant response rating,morningglory; [8],9
same,Velvetleaf plant response rating,velvetleaf; [1],4
same,Velvetleaf plant response rating,velvetleaf; [2],2
same,Velvetleaf plant response rating (0 to 10 scale),velvetleaf; [3],3
same,Velvetleaf plant response rating,velvetleaf; [4],5
same,Velvetleaf plant response rating,velvetleaf; [5],7
same,Velvetleaf plant response rating,velvetleaf; [6],2
same,"Plant response rating, Velvetleaf",velvetleaf; [7],5
same,Velvetleaf plant response rating,velvetleaf; [8],6
same,Rice plant response rating,rice; [9],0
same,Rice plant response rating,rice; [10],0
same,Rice plant response rating,rice; [11],0
same,"Plant response rating, Rice",rice; [12],0
same,Rice plant response rating,rice; [13],0
same,"Plant response rating, Rice",rice; [14],0
same,Rice plant response rating,rice; [15],0
same,Rice plant response rating,rice; [16],0
same,Giant foxtail plant response rating,giant foxtail; [1],8
same,Giant foxtail plant response rating,giant foxtail; [2],10
same,Giant foxtail plant response rating (0 to 10 scale),giant foxtail; [3],10
same,Giant foxtail plant response rating,giant foxtail; [4],10
same,Giant foxtail plant response rating,giant foxtail; [5],10
same,Giant foxtail plant response rating,giant foxtail; [6],6
same,"Plant response rating, Giant foxtail",giant foxtail; [7],9
same,Giant foxtail plant response rating,giant foxtail; [8],9
same,Nutsedge plant response rating,purple nutsedge; [1],0
same,Nutsedge plant response rating,purple nutsedge; [2],0
same,Nutsedge plant response rating (0 to 10 scale),purple nutsedge; [3],0
same,Nutsedge plant response rating,purple nutsedge; [4],0
same,Nutsedge plant response rating,purple nutsedge; [5],0
same,Nutsedge plant response rating,purple nutsedge; [6],0
same,"Plant response rating, Nutsedge",purple nutsedge; [7],0
same,Nutsedge plant response rating,purple nutsedge; [8],4
same,Corn plant response rating,corn; [1],2
same,Corn plant response rating,corn; [2],0
same,Corn plant response rating (0 to 10 scale),corn; [3],0
same,Corn plant response rating,corn; [4],4
same,Corn plant response rating,corn; [5],7
same,Corn plant response rating,corn; [6],0
same,"Plant response rating, Corn",corn; [7],2
same,Corn plant response rating,corn; [8],2
same,Wheat plant response rating,wheat; [1],2
same,Wheat plant response rating,wheat; [2],0
same,Wheat plant response rating (0 to 10 scale),wheat; [3],0
same,Wheat plant response rating,wheat; [4],2
same,Wheat plant response rating,wheat; [5],4
same,Wheat plant response rating,wheat; [6],2
same,"Plant response rating, Wheat",wheat; [7],4
same,Wheat plant response rating,wheat; [8],4
same,Sugarbeets plant response rating,sugar beet; [1],0
same,Sugarbeets plant response rating,sugar beet; [2],3
same,Sugarbeets plant response rating (0 to 10 scale),sugar beet; [3],3
same,Sugarbeets plant response rating,sugar beet; [4],4
same,Sugarbeets plant response rating,sugar beet; [5],6
same,Sugarbeets plant response rating,sugar beet; [6],0
same,"Plant response rating, Sugarbeets",sugar beet; [7],2
same,Sugarbeets plant response rating,sugar beet; [8],2
